In US20220280462A1, “SOLID ORAL DOSAGE FORM COMPRISING NAPROXEN AND VITAMIN B1” (DSM IP ASSETS B.V., priority 2019, published 2022):
Counter-ions that a name gives are not always drawn.

Assay: Bulk density, tapped density and Carr Index (flowability) of powders and granules
Assay type: physicochemical
Settings: for Carr Index: 100×(1−BD/TD), greater than 25 indicates poor flowability
Protocol: The Carr Index is calculated by the formula 100×(1−BD/TD) and is used as an indication of the flowability.

Description (appearance of powder) | flowability (in words, from Carr Index) | SMILES | BD (bulk density) [g/mL] | TD (tapped density) [g/mL] | Carr Index
very lumpy | poor flowability | COc1ccc2cc([C@H](C)C(=O)O)ccc2c1 [Naproxen Sodium, naproxen sodium] | – | – | –
– | – | Cc1ncc(CO)c(CO)c1O.Cl [Pyridoxine Hydrochloride, pyridoxine hydrochloride] | 0.44 | 0.62 | 30
– | – | Cc1ncc(C[n+]2csc(CCO)c2C)c(N)n1 [Thiamine hydrochloride, thiamine hydrochloride] | 0.26 | 0.46 | 44
